Values of other authors in patent publication US20200078426A1, “TREATMENT OF CANCER BY INFUSION OF ONCOLYTIC HERPES SIMPLEX VIRUS TO THE BLOOD” (VIRTTU BIOLOGICS LIMITED, priority 2015, published 2020).

System: squamous cell head and neck cancer
Conditions: concurrent chemo-radiation arm, unresectable locally advanced disease; radiation alone 23%

For `N.N.[Cl][Pt][Cl]` [cisplatin], the “three year overall survival” value is given as 37%.
